This is an account of results in patent publication US9790215B2 (FLATLEY DISCOVERY LAB, LLC, priority 2013, dated 2017).

For orientation: EC50 means the concentration giving half of the maximal effect.

Molecules are shown by their SMILES. Where only a bound is given, the exact number is not on record here.

The target of this assay is T1, human ΔF508-CFTR (Homo sapiens, UniProt P13569, DEL508-508).
T1 construct: expressed in transfected cells
T1 sequence (P13569 with tags, fused parts or gaps DEL508-508): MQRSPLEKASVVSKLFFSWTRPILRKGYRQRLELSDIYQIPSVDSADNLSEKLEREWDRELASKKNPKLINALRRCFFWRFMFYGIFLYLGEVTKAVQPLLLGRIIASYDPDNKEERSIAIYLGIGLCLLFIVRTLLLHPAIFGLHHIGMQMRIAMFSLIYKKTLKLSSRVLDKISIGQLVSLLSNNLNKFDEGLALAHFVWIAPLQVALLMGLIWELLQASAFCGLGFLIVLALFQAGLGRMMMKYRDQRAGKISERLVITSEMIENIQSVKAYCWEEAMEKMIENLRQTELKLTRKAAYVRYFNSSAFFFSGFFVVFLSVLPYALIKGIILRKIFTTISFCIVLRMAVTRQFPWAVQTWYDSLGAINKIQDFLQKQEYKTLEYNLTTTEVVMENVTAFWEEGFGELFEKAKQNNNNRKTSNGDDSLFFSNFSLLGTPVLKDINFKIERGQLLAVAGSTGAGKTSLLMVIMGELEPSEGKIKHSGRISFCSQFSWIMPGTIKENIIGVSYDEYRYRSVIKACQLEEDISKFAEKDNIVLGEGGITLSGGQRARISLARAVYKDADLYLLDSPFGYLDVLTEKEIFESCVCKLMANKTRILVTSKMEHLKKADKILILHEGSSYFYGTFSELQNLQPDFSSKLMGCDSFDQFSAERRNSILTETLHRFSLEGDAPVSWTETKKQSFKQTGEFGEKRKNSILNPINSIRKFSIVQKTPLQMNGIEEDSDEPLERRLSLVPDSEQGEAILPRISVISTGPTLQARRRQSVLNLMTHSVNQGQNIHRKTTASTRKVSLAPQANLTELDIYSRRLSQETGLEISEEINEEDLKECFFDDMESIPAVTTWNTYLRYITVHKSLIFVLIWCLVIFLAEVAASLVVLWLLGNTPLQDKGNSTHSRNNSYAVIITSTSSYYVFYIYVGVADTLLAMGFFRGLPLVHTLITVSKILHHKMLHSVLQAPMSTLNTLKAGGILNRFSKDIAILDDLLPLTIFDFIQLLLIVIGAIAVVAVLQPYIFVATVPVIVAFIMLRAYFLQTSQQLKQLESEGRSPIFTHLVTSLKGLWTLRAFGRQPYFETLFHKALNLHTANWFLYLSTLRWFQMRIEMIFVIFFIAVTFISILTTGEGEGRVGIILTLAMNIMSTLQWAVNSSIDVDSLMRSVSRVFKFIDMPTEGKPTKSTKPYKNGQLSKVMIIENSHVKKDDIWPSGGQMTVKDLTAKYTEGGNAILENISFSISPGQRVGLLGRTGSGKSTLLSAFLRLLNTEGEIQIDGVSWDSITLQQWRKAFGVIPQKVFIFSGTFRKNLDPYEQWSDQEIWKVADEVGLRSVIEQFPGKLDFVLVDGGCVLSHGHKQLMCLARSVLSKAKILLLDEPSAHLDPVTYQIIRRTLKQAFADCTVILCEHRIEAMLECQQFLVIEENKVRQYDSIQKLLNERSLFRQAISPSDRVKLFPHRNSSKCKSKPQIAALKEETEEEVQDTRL
The assay is described as follows: CFTR-YFP High Throughput Assay (YFP halide flux in FRT cells). Format: cell-based. The conditions noted are these: FRT cells expressing human ΔF508-CFTR and YFP; forskolin stimulated. In a few lines: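 FRT cells stably co-expressing human ΔF508-CFTR and halide-sensitive YFP-H148Q/I152L were treated with compound […] for 24–26 h at 37 °C (corrector mode), washed, then stimulated with 20 μM forskolin plus 30 μM potentiator P3 for 60–120 min at room temperature. Iodide-induced YFP quench (ex 500/em 540 nm) rates came from least-squares fitting.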
For `COc1ccc2c(-c3ccc(S(N)(=O)=O)cc3)nn(CC(=O)N(c3ccc4c(c3)OC(F)(F)O4)C3CC3)c(=O)c2c1` [Example 71, N-cyclopropyl-N-(2,2-difluorobenzo[d][1,3]dioxol-5-yl)-2-(7-methoxy-1-oxo-4-(4-sulfamoylphenyl)phthalazin-2(1H)-yl)acetamide], the EC50 is less than 10 µM. The value for `COc1ccc2c(-c3cccc(C#N)c3)nn(CC(=O)N(c3ccc4c(c3)OC(F)(F)O4)C3CC3)c(=O)c2c1` [Example 72, 2-(4-(3-cyanophenyl)-7-methoxy-1-oxophthalazin-2(1H)-yl)-N-cyclopropyl-N-(2,2-difluorobenzo[d][1,3]dioxol-5-yl)acetamide] was less than 10 µM; that for `CCN(C(=O)Cn1nc(-c2ccc(C(N)=O)cc2)c2ccc(OC)cc2c1=O)c1ccc2c(c1)OC(F)(F)O2` [Example 75, 4-(3-(2-((2,2-difluorobenzo[d][1,3]dioxol-5-yl)(ethyl)amino)-2-oxoethyl)-6-methoxy-4-oxo-3,4-dihydrophthalazin-1-yl)benzamide] was less than 10 µM. To `COc1ccc2c(-c3ccc(C(N)=O)cc3)nn(CC(=O)N(C)c3ccc4c(c3)OC(F)(F)O4)c(=O)c2c1` [Example 76, 4-(3-(2-((2,2-difluorobenzo[d][1,3]dioxol-5-yl)(methyl)amino)-2-oxoethyl)-6-methoxy-4-oxo-3,4-dihydrophthalazin-1-yl)benzamide] belongs less than 10 µM; to `CCN(C(=O)Cn1nc(-c2ccc(C(N)=O)cc2)c2ccc(OC)cc2c1=O)c1ccc2nc(C)oc2c1` [Example 77, 4-(3-(2-(ethyl(2-methylbenzo[d]oxazol-6-yl)amino)-2-oxoethyl)-6-methoxy-4-oxo-3,4-dihydrophthalazin-1-yl)benzamide], less than 10 µM. To `CCN(C(=O)Cn1nc(C(=O)Nc2ccccc2C#N)c2ccccc2c1=O)c1ccc2c(c1)OC(F)(F)O2` [Example 78, N-(2-cyanophenyl)-3-(2-((2,2-difluorobenzo[d][1,3]dioxol-5-yl)(ethyl)amino)-2-oxoethyl)-4-oxo-3,4-dihydrophthalazine-1-carboxamide] belongs 10 to 20 µM; to `CCN(C(=O)Cn1nc(C(=O)Nc2cc(Cl)ccc2C(=O)O)c2ccccc2c1=O)c1ccc2c(c1)OC(F)(F)O2` [Example 79, 4-chloro-2-(3-(2-((2,2-difluorobenzo[d][1,3]dioxol-5-yl)(ethyl)amino)-2-oxoethyl)-4-oxo-3,4-dihydrophthalazine-1-carboxamido)benzoic acid], less than 10 µM. For `CCN(C(=O)Cn1nc(C(=O)Nc2ccccn2)c2ccccc2c1=O)c1ccc2c(c1)OC(F)(F)O2` [Example 80, 3-(2-((2,2-difluorobenzo[d][1,3]dioxol-5-yl)(ethyl)amino)-2-oxoethyl)-4-oxo-N-(pyridin-2-yl)-3,4-dihydrophthalazine-1-carboxamide], the EC50 was more than 20 µM. As to `CCN(C(=O)Cn1nc(C(=O)N(C)c2ccccn2)c2ccccc2c1=O)c1ccc2c(c1)OC(F)(F)O2` [Example 81, 3-(2-((2,2-difluorobenzo[d][1,3]dioxol-5-yl)(ethyl)amino)-2-oxoethyl)-N-methyl-4-oxo-N-(pyridin-2-yl)-3,4-dihydrophthalazine-1-carboxamide], the concentration giving a half-maximal response (EC50) lay in the range of 10 to 20 µM. With `CCc1ccc(N(CC)C(=O)Cn2nc(C(=O)Nc3cc(Cl)ccc3C#N)c3ccccc3c2=O)cc1` [Example 82, N-(5-chloro-2-cyanophenyl)-3-(2-(ethyl(4-ethylphenyl)amino)-2-oxoethyl)-4-oxo-3,4-dihydrophthalazine-1-carboxamide], the EC50 is less than 10 µM.

`CCN(C(=O)Cn1nc(C(=O)N(CC)c2ccccc2C#N)c2ccccc2c1=O)c1ccc2c(c1)OC(F)(F)O2` [Example 83, N-(2-cyanophenyl)-3-(2-((2,2-difluoro-benzo[d][1,3]dioxol-5-yl)(ethyl)amino)-2-oxoethyl)-N-ethyl-4-oxo-3,4-dihydro-phthalazine-1-carboxamide]: the EC50 is less than 10 µM.

In the case of `CCc1ccc(N(CC)C(=O)Cn2nc(C(=O)Nc3cc(Cl)ccc3C(=O)OC)c3ccccc3c2=O)cc1` [Example 84, methyl 4-chloro-2-(3-(2-(ethyl(4-ethylphenyl)amino)-2-oxoethyl)-4-oxo-3,4-dihydrophthalazine-1-carboxamido)benzoate], the EC50 was less than 10 µM.

`CCN(C(=O)Cn1ncc2c(c1=O)c1ccccc1n2Cc1ccccn1)c1ccc2c(c1)OC(F)(F)O2` [Example 85, N-(2,2-difluorobenzo[d][1,3]dioxol-5-yl)-N-ethyl-2-(1-oxo-5-(pyridin-2-ylmethyl)-1H-pyridazino[4,5-b]indol-2(5H)-yl)acetamide]: the half-maximal effective concentration (EC50) was 10 to 20 µM.

With `CCN(C(=O)Cn1ncc2c(c1=O)c1ccccc1n2CCOC)c1ccc2c(c1)OC(F)(F)O2` [Example 86, N-(2,2-difluorobenzo[d] [1,3]dioxol-5-yl)-N-ethyl-2-(5-(2-methoxyethyl)-1-oxo-1H-pyridazino[4,5-b]indol-2(5H)-yl)acetamide], the EC50 is less than 10 µM. For `CCN(C(=O)Cn1ncc2c(c1=O)c1ccccc1n2Cc1ccccc1)c1ccc2c(c1)OC(F)(F)O2` [Example 87, 2-(5-benzyl-1-oxo-1H-pyridazino[4,5-b]indol-2(5H)-yl)-N-(2,2-difluorobenzo[d][1,3]dioxol-5-yl)-N-ethylacetamide], the EC50 was less than 10 µM. To `CCN(C(=O)Cn1ncc2c(c1=O)c1ccccc1n2CCC(=O)OC)c1ccc2c(c1)OC(F)(F)O2` [Example 88, methyl 3-(2-(2-((2,2-difluorobenzo[d][1,3]dioxol-5-yl)(ethyl)amino)-2-oxoethyl)-1-oxo-1H-pyridazino[4,5-b]indol-5(2H)-yl)propanoate] belongs less than 10 µM; to `CCN(C(=O)Cn1ncc2c(c1=O)c1ccccc1n2Cc1cccc(OC)c1)c1ccc2c(c1)OC(F)(F)O2` [Example 89, N-(2,2-difluorobenzo[d] [1,3]dioxol-5-yl)-N-ethyl-2-(5-(3-methoxybenzyl)-1-oxo-1H-pyridazino[4,5-b]indol-2(5H)-yl)acetamide], 10 to 20 µM; to `CCN(C(=O)Cn1ncc2c(c1=O)c1ccccc1n2Cc1ccc(OC)cc1)c1ccc2c(c1)OC(F)(F)O2` [Example 90, N-(2,2-difluorobenzo[d][1,3]dioxol-5-yl)-N-ethyl-2-(5-(4-methoxy-benzyl)-1-oxo-1H-pyridazino[4,5-b]indol-2(5H)-yl)acetamide], 10 to 20 µM.

For `CCN(C(=O)Cn1ncc2c(c1=O)c1ccccc1n2CCCOC)c1ccc2c(c1)OC(F)(F)O2` [Example 91, N-(2,2-difluorobenzo[d] [1,3]dioxol-5-yl)-N-ethyl-2-(5-(3-methoxypropyl)-1-oxo-1H-pyridazino[4,5-b]indol-2(5H)-yl)acetamide], the EC50 is less than 10 µM. To `CCN(C(=O)Cn1ncc2c(c1=O)c1ccccc1n2CCC#N)c1ccc2c(c1)OC(F)(F)O2` [Example 92, 2-(5-(2-cyanoethyl)-1-oxo-1H-pyridazino[4,5-b]indol-2(5H)-yl)-N-(2,2-difluorobenzo[d][1,3]dioxol-5-yl)-N-ethylacetamide] belongs less than 10 µM; to `CCN(C(=O)Cn1ncc2c(c1=O)c1ccccc1n2CC#N)c1ccc2c(c1)OC(F)(F)O2` [Example 93, 2-(5-(cyanomethyl)-1-oxo-1H-pyridazino[4,5-b]indol-2(5H)-yl)-N-(2,2-difluorobenzo[d][1,3]dioxol-5-yl)-N-ethylacetamide], less than 10 µM.

For the compound `CCN(C(=O)Cn1ncc2c(c1=O)c1ccccc1n2Cc1cccnc1)c1ccc2c(c1)OC(F)(F)O2` [Example 94, N-(2,2-difluorobenzo[d][1,3]dioxol-5-yl)-N-ethyl-2-(1-oxo-5-(pyridin-3-ylmethyl)-1H-pyridazino[4,5-b]indol-2(5H)-yl)acetamide], the EC50 was less than 10 µM. The value for `CCN(C(=O)Cn1ncc2c(c1=O)c1ccccc1n2Cc1ccccc1C#N)c1ccc2c(c1)OC(F)(F)O2` [Example 95, 2-(5-(2-cyanobenzyl)-1-oxo-1H-pyridazino[4,5-b]indol-2(5H)-yl)-N-(2,2-difluorobenzo[d][1,3]dioxol-5-yl)-N-ethylacetamide] was less than 10 µM; that for `CCN(C(=O)Cn1ncc2c(c1=O)c1ccccc1n2Cc1cccc(C#N)c1)c1ccc2c(c1)OC(F)(F)O2` [Example 96, 2-(5-(3-cyanobenzyl)-1-oxo-1H-pyridazino[4,5-b]indol-2(5H)-yl)-N-(2,2-difluorobenzo[d][1,3]dioxol-5-yl)-N-ethylacetamide] was less than 10 µM; that for `CCN(C(=O)Cn1ncc2c(c1=O)c1ccccc1n2Cc1ccncc1)c1ccc2c(c1)OC(F)(F)O2` [Example 97, N-(2,2-difluorobenzo[d] [1,3]dioxol-5-yl)-N-ethyl-2-(1-oxo-5-(pyridin-4-ylmethyl)-1H-pyridazino[4,5-b]indol-2(5H)-yl)acetamide] was less than 10 µM. Consider `Cc1ccc(-n2nc(C(=O)N3CCCCC3)c3c4ccccc4n(C)c3c2=O)cc1` [Example 101, 5-methyl-1-(piperidine-1-carbonyl)-3-p-tolyl-3H-pyridazino[4,5-b]indol-4(5H)-one], for which the EC50 is less than 10 µM. Take `CCN(C(=O)c1nn(-c2ccccc2)c(=O)c2c1c1ccccc1n2C)c1ccncn1` [Example 102, N-ethyl-5-methyl-4-oxo-3-phenyl-N-(pyrimidin-4-yl)-4,5-dihydro-3H-pyridazino[4,5-b]indole-1-carboxamide]: the concentration giving a half-maximal response (EC50) was less than 10 µM. To `Cc1ccc(-n2nc(C(=O)N(c3ccccc3)C(C)C)c3c4ccccc4n(C)c3c2=O)cc1` [Example 103, N-isopropyl-5-methyl-4-oxo-N-phenyl-3-(p-tolyl)-4,5-dihydro-3H-pyridazino[4,5-b]indole-1-carboxamide] belongs less than 10 µM. To `Cc1ccc(-n2nc(C(=O)N(c3ccccc3)C3CC3)c3c4ccccc4n(C)c3c2=O)cc1` [Example 104, N-cyclopropyl-5-methyl-4-oxo-N-phenyl-3-(p-tolyl)-4,5-dihydro-3H-pyridazino[4,5-b]indole-1-carboxamide] belongs less than 10 µM.
